{
  "source": "patent US20250249056A1",
  "about": "“CANCER THERAPIES COMPRISING A NUCLEAR EXPORT INHIBITOR AND AN ONCOLYTIC VIRUS” (priority 2022, published 2025)",
  "system": "PANC-1 cells",
  "test": "Click-iT EdU cell proliferation assay",
  "assay_type": "cell-based, human",
  "settings": "PANC-1 cells treated for 24 hours; selinexor or MYXV",
  "experimental": "Selinexor was previously reported to reduce the proliferation of cancer cells, however, viral infection also stops cell proliferation (Zheng, Y., et al., 2014, Cancer Chemotherapy and Pharmacology, 74:487-495; Johnston, J. B., et al., 2005, Journal of Virology, 79:10750-10763). As such, the effect of selinexor and MYXV on human cancer cells was examined alone and in combination. To this end, two cell proliferation assays were performed. In the first methods, DNA synthesis was measured by the incorporation of EdU (5-ethynyl-2′-deoxyuridine), a nucleoside analog of thymidine, into DNA during active DNA synthesis (FIG. 4A) (Chehrehasa F., et al., 2009, Journal of Neuroscience Methods, 177:122-130). Using this method in uninfected PANC-1 cells, EdU incorporation was detected in more than 50% of dividing cells (FIG. 4B and FIG. 4C). When cells were treated with selinexor or MYXV for 24 hours, on the other hand, a significant reduction in proliferation was observed (20% EdU-positive cells). […]\nClick-iT EdU Cell Proliferation Assay: To visualize and measure cell proliferation, a Click-iT™ EdU cell proliferation assay (Thermo Fisher) was used according to the manufacturer's instructions. […] Fluorescence images were obtained using a fluorescence microscope and fluorescence signals were analyzed using ImageJ software.",
  "data": [
    {"smiles": "O=C(/C=C\\n1cnc(-c2cc(C(F)(F)F)cc(C(F)(F)F)c2)n1)NNc1cnccn1", "note": "[selinexor]", "values": [
      {"measurement": "EdU-positive cells", "value": 20, "unit": "%"}
    ]}
  ]
}
